Assays:
Cotton = test: Post-emergent herbicidal test, cotton; assay type: in vivo; design: key: 1: no perceptible injury; 2: intermediate degrees of injury; 3: intermediate degrees of injury; 4: intermediate degrees of injury; 5: the plant was dead; conditions: Table II; 2500 parts per million, after ten days
Description: (§1) Suspensions of the test compounds were prepared by dissolving one gram of compound in 50 milliliters of acetone in which had been dissolved 0.1 gram (10 percent of the weight of compound) of an alkylphenoxyethanol sufactant, as an emulsifying or dispersing agent. The resulting solution was mixed into 160 milliliters of water to give roughly 200 milliliters of a suspension containing the compound in finely divided form. The thus prepared stock suspension contained 0.5 percent by weight of compound. The test concentrations employed in the tests described below were obtained by diluting the stock suspension with water. The test procedures were as follows:
(§2) Experiments were also conducted to determine the phytotoxicity of representative compositions with respect to healthy fresh plants. Solutions of the compounds were prepared as described above to provide a concentration of 2500 parts per million of the test compound. The test plants were sprayed in accordance with the procedure described above for the Mite Foliage Spray Test so as to deliver approximately 100 milliliters of test solutions to the leaves of each plant tested. The sprayed plants and controls were set aside for approximately one hour to allow the solutions to dry and were then placed in the greenhouse. After ten days the plants were visually inspected to determine the extent of foliage injury. A rating of 1 indicates no perceptible injury; 5 indicates the plant was dead and ratings of 2, 3 and 4 indicate intermediate degrees of injury based upon the number and extent to which leaves were injured.

Bean = test: Post-emergent herbicidal test, bean; assay type: in vivo; design: key: 1: no perceptible injury; 2: intermediate degrees of injury; 3: intermediate degrees of injury; 4: intermediate degrees of injury; 5: the plant was dead; conditions: Table II; 2500 parts per million, after ten days
Description: as §1, §2

Perennial rye grass = test: Preliminary herbicide seed germination test (pre-emergent), perennial rye grass; assay type: in vivo, Solium perenne; design: key: 5: no seedling emerged; 4: few seedlings emerged and/or very severe stunting; 3: moderate reduction in stand and/or moderate stunting.; 2: very slight reduction in stand and/or slight stunting; 1: no injury, seedlings appear no different with respect to stand or growth than untreated controls; conditions: Table II; ten to twelve days after application
Description: as §1
(§3) The following seeds were used in this test:
Perennial rye grass--Solium perenne
(§4) Two […] mixtures were prepared as follows:
(§5) Each of the above mixtures was rolled separately in 5 gallon containers for approximately one-half hour on ball mill to insure uniform mixing of seeds and soil. For each compound four 3-inch pots were filled with soil to within 11/2 inches of top of pots. To two of these pots were added 70 cc. of Mixture I. To the remaining 2 pots were added 70 cc. of Mixture II. The seed-soil mixture was tamped firmly, and the pots were removed to the greenhouse and watered lightly. About 2 hours after planting, 25 milliliters of the test formulation were added to one pot containing Mixture I and one pot containing Mixture II. An equal volume of a water solution containing acetone and an emulsifier in the same concentration as the herbicidal mixture but without the candidate herbicide was also added to each of the soil-seed mixtures. These pots are used as check or control units. The test compounds were formulated by diluting the stock suspension with water to obtain the desired concentration of the compound in parts per million of the final formulation. Each compound was tested at the same concentration. […] Ratings were made according to the following designations: […]

[1] = test system: egg of the two-spotted mite; test: Mite Ovicide Test (eggs); assay type: in vivo, Tetranychus urticae (Koch); design: key to Miticidal, Egg: A: Excellent Control; B: Partial Control; No Control; conditions: Table II; unhatched eggs after four days
Description: Suspensions of the test compounds were prepared by dissolving one gram of compound in 50 milliliters of acetone in which had been dissolved 0.1 gram (10 percent of the weight of compound) of an alkylphenoxyethanol sufactant, as an emulsifying or dispersing agent. The resulting solution was mixed into 160 milliliters of water to give roughly 200 milliliters of a suspension containing the compound in finely divided form. The thus prepared stock suspension contained 0.5 percent by weight of compound. The test concentrations employed in the tests described below were obtained by diluting the stock suspension with water. The test procedures were as follows: The test organism was the egg of the two-spotted mite (Tetranychus urticae (Koch)), as obtained from adults reared on […] bean plants under controlled conditions of 80±5° F. and 50±5 percent relative humidity. Heavily infested leaves from a stock culture were placed on the primary leaves of two bean plants six to eight inches in height growing in a two-and-a-half inch clay pot. Females were allowed to oviposit for a period of 48 hours and the leaves of the infested plants were dipped in a solution containing 800 parts of tetraethyl pyrophosphate per million parts of water in order to destroy the reproductory forms and thus prevent further egg laying. […] The plants were allowed to dry thoroughly. The test compounds were formulated by diluting the stock suspension with water to give a suspension containing varying amounts of test compound per million parts of final formulation. The potted plants (one pot per compound) were placed on a revolving turntable and sprayed with 100-110 milliliters of test compound formulation by use of a DeVilbis spray gun set at 40 spig. air pressure. This application which lasted 30 seconds, was sufficient to wet the plants to run-off. As a control, 100-110 milliliters of a water solution containing acetone and emulsifier in the same concentrations as the test compound formulation, but containing no test compound, were also sprayed on plants infested with eggs. The sprayed plants were held at 80±5° F. and 50±5 percent relative humidity for four days, after which a microscopic examination was made of unhatched (dead) and hatched (living) eggs. In these tests the pesticidal activity of the compounds against mites and mite eggs was rated as follows: Tests were conducted in accordance with the procedures given at pages 17 to 21 supra. The results are expressed in the same manner as used in Table II, except with respect to miticidal activity. For mite adult and mite egg comparison purposes, results are given in parts per million (ppm) required for a 50 percent kill of mites or eggs, respectively.

Tomato = test: Post-emergent herbicidal test, tomato; assay type: in vivo; design: key: 1: no perceptible injury; 2: intermediate degrees of injury; 3: intermediate degrees of injury; 4: intermediate degrees of injury; 5: the plant was dead; conditions: Table II; 2500 parts per million, after ten days
Description: as §1, §2

[2] = test system: Red root pigweed (Amaranthus); test: Preliminary herbicide seed germination test (pre-emergent), red root pigweed; assay type: in vivo, Amaranthus retroflexus; design: key: 5: no seedling emerged; 4: few seedlings emerged and/or very severe stunting; 3: moderate reduction in stand and/or moderate stunting.; 2: very slight reduction in stand and/or slight stunting; 1: no injury, seedlings appear no different with respect to stand or growth than untreated controls; conditions: Table II; ten to twelve days after application
Description: as §1, §3
Red root pigweed--Amaranthus retroflexus
as §4, §5

Mustard = test: Preliminary herbicide seed germination test (pre-emergent), mustard; assay type: in vivo, Brassica pincea var. foliosa (Florida broadleaf); design: key: 5: no seedling emerged; 4: few seedlings emerged and/or very severe stunting; 3: moderate reduction in stand and/or moderate stunting.; 2: very slight reduction in stand and/or slight stunting; 1: no injury, seedlings appear no different with respect to stand or growth than untreated controls; conditions: Table II; ten to twelve days after application
Description: as §1, §3
Mustard--Brassica pincea var. foliosa (Florida broadleaf)
as §4, §5

Row | Compound | Post-emergent Herbicidal, Cotton (Cotton) | Post-emergent Herbicidal, Bean (Bean) | Pre-emergent Herbicidal, Rye (Perennial rye grass) | Miticidal, Egg [1] | Post-emergent Herbicidal, Tomato (Tomato) | Pre-emergent Herbicidal, Amaranthus [2] | Pre-emergent Herbicidal, Mustard (Mustard)
1 | CCCCC(CC)C(=O)OC1=C(c2ccccc2Cl)C(=O)CC1 (centres unmarked) [Compound 1] | 3 | 3 | 5 | A | 2 | 5 | 5
2 | O=C1CCC(OC(=O)c2ccccc2)=C1c1ccccc1Cl [Compound 2] | 2 | 3 | 4 | A | 2 | 1 | 1
3 | CC(=O)OC1=C(c2ccc(Cl)cc2Cl)C(=O)CC1 [Compound 3] | 2 | 2 | 2 | A | 2 | 2 | 1
4 | CC(C)C(=O)OC1=C(c2ccc(Cl)cc2Cl)C(=O)CC1 [Compound 4] | 2 | 2 | 1 | B | 2 | 1 | 1
5 | CCCCC(CC)C(=O)OC1=C(c2ccc(Cl)cc2Cl)C(=O)CC1 (centres unmarked) [Compound 5] | 2 | 3 | 1 | A | 2 | 1 | 1
6 | CCCCCCCCCCCCCCCC(=O)OC1=C(c2ccc(Cl)cc2Cl)C(=O)CC1 [Compound 6] | 1 | 1 | 1 | B | 1 | 1 | 1
7 | CCCCC(CC)C(=O)OC1=C(c2ccccc2C)C(=O)CC1 (centres unmarked) [Compound 7] | 2 | 2 | 5 | A | 2 | 3 | 1
8 | CCCCCCCCCCCCCCCC(=O)OC1=C(c2ccccc2C)C(=O)CC1 [Compound 8] | 2 | 3 | 2 | B | 1 | 3 | 1
9 | CCCCC(CC)C(=O)OC1=C(c2ccc(C)cc2C)C(=O)CC1 (centres unmarked) [Compound 9, 3-(2-ethylhexanoyloxy)-2-(2', 4'-dimethylphenyl)-2-cyclopentenone] | 1 | 2 | 5 | A | 1 | 2 | 2
10 | Cc1ccc(C2=C(OC(=O)c3ccccc3)CCC2=O)c(C)c1 [Compound 10] | 1 | 3 | 3 | B | 1 | 1 | 1
11 | CC(=O)OC1=C(c2cc(C)ccc2C)C(=O)CC1 [Compound 11] | 2 | 2 | 4 | C | 3 | 3 | 3
12 | Cc1ccc(C)c(C2=C(OC(=O)C(C)C)CCC2=O)c1 [Compound 12] | 3 | 2 | 1 | B | 3 | 1 | 1
13 | CCCCC(CC)C(=O)OC1=C(c2cc(C)ccc2C)C(=O)CC1 (centres unmarked) [Compound 13] | 3 | 2 | 1 | A | 2 | 1 | 1
14 | CCCCCCCCCCCCCCCC(=O)OC1=C(c2cc(C)ccc2C)C(=O)CC1 [Compound 14] | 3 | 2 | 4 | A | 3 | 1 | 1
15 | CC(=O)OC1=C(c2cc(C)ccc2C)C(=O)C(C)C1 (centres unmarked) [Compound 15] | 2 | 2 | 4 | B | 2 | 3 | 2
16 | Cc1ccc(C)c(C2=C(OC(=O)C(C)C)CC(C)C2=O)c1 (centres unmarked) [Compound 16] | 3 | 3 | 3 | B | 2 | 3 | 2
17 | CCCCC(CC)C(=O)OC1=C(c2cc(C)ccc2C)C(=O)C(C)C1 (centres unmarked) [Compound 17] | 3 | 3 | 3 | A | 1 | 3 | 1

Source: patent publication US4551547A, “Biocidal 2-aryl-1, 3-cyclopentanedione enol ester compounds” (Union Carbide Corporation, priority 1983, dated 1985)
